The results in this text go back to US20240101576A1, “HETEROCYCLIC INHIBITORS OF EGFR AND/OR HER2, FOR USE IN THE TREATMENT OF CANCER” (Scorpion Therapeutics, Inc., priority 2020, published 2024).

What all share (type): cell-based
For assay [1], the target named is T1, EGFR WT (Ba/F3 cells) (Homo sapiens, UniProt P00533).
T1 construct: expressed in transfected cells; host or cells: Ba/F3 (murine pro-B cells), retroviral transduction, puromycin selection, maintained with EGF
Put plainly: Inhibitor activity on EGFR-dependent cell growth (CellTiter-Glo, 72 h), Ba/F3 EGFR WT. As to conditions: read-out: BaF3 WT IC50. In outline:
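This growth assay used Ba/F3 cells that depend on wild-type EGFR and are kept in EGF without IL3. Compounds were made up as 10 mM DMSO stocks and diluted 3-fold over 10 points. 120 nL went onto 600 cells/well. After 72 hours, 40 μL CellTiter-Glo was added and luminescence read on EnVision after 30 min.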
On the technique in general: In ATP-based viability assays light output follows the ATP content of the culture.

In assay [2] the target is T2, EGFR exon 20 ASV Ins V769_D770 (Ba/F3 cells) (Homo sapiens, UniProt P00533, INS769ASV).
T2 construct: expressed in transfected cells; host or cells: Ba/F3 (murine pro-B cells), retroviral transduction, puromycin selection, IL3-independent pool
T2 sequence (P00533 with tags, fused parts or gaps INS769ASV): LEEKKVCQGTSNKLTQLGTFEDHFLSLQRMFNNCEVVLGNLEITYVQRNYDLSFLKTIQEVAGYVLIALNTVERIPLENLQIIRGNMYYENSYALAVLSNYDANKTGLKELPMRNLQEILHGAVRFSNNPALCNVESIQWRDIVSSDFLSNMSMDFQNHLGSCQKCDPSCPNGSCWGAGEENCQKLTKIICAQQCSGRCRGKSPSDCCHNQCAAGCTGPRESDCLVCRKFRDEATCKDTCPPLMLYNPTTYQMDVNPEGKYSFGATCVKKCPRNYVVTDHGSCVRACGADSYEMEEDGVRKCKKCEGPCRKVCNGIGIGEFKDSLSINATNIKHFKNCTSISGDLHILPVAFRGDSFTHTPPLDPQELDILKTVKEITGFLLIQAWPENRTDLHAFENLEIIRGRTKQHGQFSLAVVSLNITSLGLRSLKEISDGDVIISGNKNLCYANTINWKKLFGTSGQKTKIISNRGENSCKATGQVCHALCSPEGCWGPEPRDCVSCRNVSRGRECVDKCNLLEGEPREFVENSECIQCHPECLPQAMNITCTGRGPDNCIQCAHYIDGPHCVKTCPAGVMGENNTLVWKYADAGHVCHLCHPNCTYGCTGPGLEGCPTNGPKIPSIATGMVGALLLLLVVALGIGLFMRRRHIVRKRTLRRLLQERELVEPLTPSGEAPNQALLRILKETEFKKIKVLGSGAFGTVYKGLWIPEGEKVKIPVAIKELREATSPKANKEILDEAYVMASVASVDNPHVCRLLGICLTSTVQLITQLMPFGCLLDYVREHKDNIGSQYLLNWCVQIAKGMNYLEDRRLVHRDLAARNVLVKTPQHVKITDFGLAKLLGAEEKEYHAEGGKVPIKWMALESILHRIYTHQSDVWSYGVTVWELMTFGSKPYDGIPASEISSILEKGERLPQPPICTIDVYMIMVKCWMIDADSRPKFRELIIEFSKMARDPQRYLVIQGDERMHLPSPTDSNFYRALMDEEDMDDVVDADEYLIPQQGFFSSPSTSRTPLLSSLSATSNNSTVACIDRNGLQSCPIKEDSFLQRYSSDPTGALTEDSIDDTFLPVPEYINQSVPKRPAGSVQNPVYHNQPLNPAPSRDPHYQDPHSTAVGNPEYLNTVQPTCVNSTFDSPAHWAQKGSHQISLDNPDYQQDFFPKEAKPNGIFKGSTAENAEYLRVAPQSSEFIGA
Kind of assay: Inhibitor activity on EGFR-dependent cell growth (CellTiter-Glo, 72 h), Ba/F3 EGFR exon 20 ASV Ins. As to conditions: read-out: BaF3 ASV IC50. In outline: (§1)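 IC50s derive from a sigmoidal dose–response fit of CellTiter-Glo signal. The signal was normalised between […]-treated cells and cell-free medium. Ba/F3 mutant-EGFR cells, seeded at 400–800/well depending on the line, had 72 h of exposure to a 10-point, 3-fold compound series.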

In assay [3] the target is T3, EGFR exon 20 SVD Ins D770_N771 (Ba/F3 cells) (Homo sapiens, UniProt P00533, INS770SVD).
T3 construct: expressed in transfected cells; host or cells: Ba/F3 (murine pro-B cells), retroviral transduction, puromycin selection, IL3-independent pool
T3 sequence (P00533 with tags, fused parts or gaps INS770SVD): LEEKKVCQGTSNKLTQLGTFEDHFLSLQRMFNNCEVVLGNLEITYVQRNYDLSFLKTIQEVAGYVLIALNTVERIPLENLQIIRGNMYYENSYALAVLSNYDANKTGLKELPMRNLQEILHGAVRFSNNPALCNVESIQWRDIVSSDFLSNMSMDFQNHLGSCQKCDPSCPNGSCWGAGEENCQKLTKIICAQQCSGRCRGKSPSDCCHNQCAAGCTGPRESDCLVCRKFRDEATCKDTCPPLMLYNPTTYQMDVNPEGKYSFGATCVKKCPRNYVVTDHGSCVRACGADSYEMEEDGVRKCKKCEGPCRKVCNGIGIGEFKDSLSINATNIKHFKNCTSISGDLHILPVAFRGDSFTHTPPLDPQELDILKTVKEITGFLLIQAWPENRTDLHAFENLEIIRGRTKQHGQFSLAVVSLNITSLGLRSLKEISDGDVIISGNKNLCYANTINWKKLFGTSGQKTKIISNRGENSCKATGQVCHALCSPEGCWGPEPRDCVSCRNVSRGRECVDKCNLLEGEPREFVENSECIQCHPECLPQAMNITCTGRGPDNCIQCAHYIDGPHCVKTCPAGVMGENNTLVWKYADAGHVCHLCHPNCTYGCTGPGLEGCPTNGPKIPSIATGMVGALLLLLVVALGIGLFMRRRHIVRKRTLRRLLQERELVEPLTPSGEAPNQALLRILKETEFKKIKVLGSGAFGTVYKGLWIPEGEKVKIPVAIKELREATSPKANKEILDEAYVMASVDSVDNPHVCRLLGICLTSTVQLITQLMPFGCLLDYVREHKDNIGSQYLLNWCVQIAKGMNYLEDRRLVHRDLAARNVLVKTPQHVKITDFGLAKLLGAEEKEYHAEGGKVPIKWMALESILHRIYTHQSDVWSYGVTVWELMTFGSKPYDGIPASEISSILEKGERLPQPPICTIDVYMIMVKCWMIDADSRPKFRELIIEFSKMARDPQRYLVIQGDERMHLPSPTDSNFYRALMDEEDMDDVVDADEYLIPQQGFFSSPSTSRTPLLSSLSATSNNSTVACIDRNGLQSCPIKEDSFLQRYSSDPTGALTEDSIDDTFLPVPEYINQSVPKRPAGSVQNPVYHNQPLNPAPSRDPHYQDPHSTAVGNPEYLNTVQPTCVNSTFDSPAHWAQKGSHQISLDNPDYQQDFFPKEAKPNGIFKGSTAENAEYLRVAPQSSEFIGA
Put plainly: Inhibitor activity on EGFR-dependent cell growth (CellTiter-Glo, 72 h), Ba/F3 EGFR exon 20 SVD Ins. As to conditions: read-out: BaF3 SVD IC50. In outline:
as §1

The target of assay [4] is T4, EGFR exon 20 FQEA Ins A763_V764 (Ba/F3 cells) (Homo sapiens, UniProt P00533, INS763FQEA).
T4 construct: expressed in transfected cells; host or cells: Ba/F3 (murine pro-B cells), retroviral transduction, puromycin selection, IL3-independent pool
T4 sequence (P00533 with tags, fused parts or gaps INS763FQEA): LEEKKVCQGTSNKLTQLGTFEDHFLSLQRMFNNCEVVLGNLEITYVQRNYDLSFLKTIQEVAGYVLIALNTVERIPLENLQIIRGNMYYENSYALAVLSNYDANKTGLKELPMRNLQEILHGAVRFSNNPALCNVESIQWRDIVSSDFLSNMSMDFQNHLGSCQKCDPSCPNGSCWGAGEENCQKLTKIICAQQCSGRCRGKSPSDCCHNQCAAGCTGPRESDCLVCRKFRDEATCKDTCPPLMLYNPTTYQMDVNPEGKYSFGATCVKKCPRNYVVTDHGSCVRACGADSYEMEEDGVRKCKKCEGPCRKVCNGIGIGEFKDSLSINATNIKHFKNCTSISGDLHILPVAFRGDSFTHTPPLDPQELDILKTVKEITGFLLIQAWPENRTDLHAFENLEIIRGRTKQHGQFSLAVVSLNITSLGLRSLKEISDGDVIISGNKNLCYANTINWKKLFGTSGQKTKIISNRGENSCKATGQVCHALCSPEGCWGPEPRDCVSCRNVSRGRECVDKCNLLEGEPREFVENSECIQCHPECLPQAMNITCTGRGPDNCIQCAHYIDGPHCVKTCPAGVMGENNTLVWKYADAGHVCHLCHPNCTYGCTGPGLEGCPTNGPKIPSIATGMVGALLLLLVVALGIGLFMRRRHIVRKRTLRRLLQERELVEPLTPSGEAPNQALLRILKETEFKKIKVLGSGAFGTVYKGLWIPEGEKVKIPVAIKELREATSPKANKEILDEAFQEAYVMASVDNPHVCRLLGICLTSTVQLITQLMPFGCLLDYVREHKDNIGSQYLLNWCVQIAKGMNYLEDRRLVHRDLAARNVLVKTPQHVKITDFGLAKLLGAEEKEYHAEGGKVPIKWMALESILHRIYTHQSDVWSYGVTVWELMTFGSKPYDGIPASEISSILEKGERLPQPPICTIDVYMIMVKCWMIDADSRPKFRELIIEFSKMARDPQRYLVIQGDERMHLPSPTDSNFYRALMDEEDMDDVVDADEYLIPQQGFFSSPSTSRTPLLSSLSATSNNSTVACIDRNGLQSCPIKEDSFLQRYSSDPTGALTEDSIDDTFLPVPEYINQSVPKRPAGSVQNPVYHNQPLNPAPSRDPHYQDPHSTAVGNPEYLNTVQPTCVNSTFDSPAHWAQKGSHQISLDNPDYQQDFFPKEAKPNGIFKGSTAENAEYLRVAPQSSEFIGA
Kind of assay: Inhibitor activity on EGFR-dependent cell growth (CellTiter-Glo, 72 h), Ba/F3 EGFR exon 20 FQEA Ins. The settings on record: read-out: BaF3 FQEA IC50. In outline:
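Mutant EGFR drives IL3-independent growth of engineered Ba/F3 pools. L858R cells go in at 400/well, L858R/C797S at 600, and exon 19del or FQEA insertion at 800. After 72 h with compound, plates are equilibrated 15 min at RT. Reagent is added 1:1, followed by 30 min and a luminescence read.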

The target of assay [5] is T2, EGFR exon 20 ASV Ins V769_D770 (Ba/F3 cells). Kind of assay: Inhibitor activity on EGFR phosphorylation (pEGFR AlphaLISA, 2 h), Ba/F3 EGFR exon 20 ASV Ins. The settings on record: EGFR phosphorylation, AlphaLISA, 2 hours; read-out: ASV IC50 (pEGFR). An excerpt: Example B. Inhibitor Activity on EGFR phosphorylation (pEGFR)
EGFR mutant Ba/F3 cells were generated by transduction with retrovirus containing vectors expressing EGFR L858R, EGFR exon 19del, EGFR L858R/C797S, EGFR exon 20 NPG Ins D770_N771, EGFR exon 20 ASV Ins V769_D770, or EGFR exon 20 SVD Ins D770_N771 genes along with a puromycin selection marker. Transduced cells are selected with puromycin for 7 days and are then be transferred into culture media without Interleukin 3 (IL3). Surviving cells are confirmed to express EGFR by Western blot and maintained as a pool. CUTO14 cells were obtained from Dr. Robert C. Doebele at the University of Colorado. The IC50 date are included in Table 6 and Table 7.
1.1 Cells are harvested from flask into cell culture medium and the cell number counted.
1.2 Cells are diluted with culture medium to the desired density and 40 μL of cell suspension is added into each well of 384-well cell culture plate and the seeding density is 50K cells/well (Ba/F3) or 12.5K cells/well (CUTO14).
2 Compound Preparation and Treatment
2.1 Test compounds are dissolved to 10 mM in a DMSO stock solution. 45 μL of stock solution is transferred to a 384 polypropylene plate (pp-plate). Perform 3-fold, 10-point dilution via transferring 15 μL compound into 30 μL DMSO using a TECAN (EVO200) liquid handler.
2.2 Spin plates at room temperature at 1,000 RPM for 1 minute.
2.3 Transfer 5 nL of diluted compound from compound source plate into the cell plate.
2.4 After compound treatment for 2 hours, perform pEGFR detection by AlphaLISA for compound treatment plates as described in “Detection” section.
3 Detection by pEGFR AlphaLISA (Perkin-Elmer)
3.1 Plates are removed from incubators and equilibrated at room temperature for 10 minutes, and media was removed
3.2 10 μL of lysis buffer is added and plates shaken at 600 rpm for 1 hr.
3.3 Prepare acceptor mix just before use and dispense 5 μL of acceptor mix to all the wells. Shake 350 rpm for Ihr in the dark
3.4 Prepare donor mix under low light conditions prior to use. Dispense 5 μL of donor mix to all the wells. Mix well on the shaker, seal and wrap in aluminum foil and incubate 1.5 hrs at room temperature in the dark
3.5 Transfer 18.5 μL mixture to OptiPlate 384, and read using an Envision. The IC50 date were included in Table 6 and Table 7.
For orientation: Bead proximity is the source of the signal in Alpha formats.

T1 sequence (P00533 25-1210): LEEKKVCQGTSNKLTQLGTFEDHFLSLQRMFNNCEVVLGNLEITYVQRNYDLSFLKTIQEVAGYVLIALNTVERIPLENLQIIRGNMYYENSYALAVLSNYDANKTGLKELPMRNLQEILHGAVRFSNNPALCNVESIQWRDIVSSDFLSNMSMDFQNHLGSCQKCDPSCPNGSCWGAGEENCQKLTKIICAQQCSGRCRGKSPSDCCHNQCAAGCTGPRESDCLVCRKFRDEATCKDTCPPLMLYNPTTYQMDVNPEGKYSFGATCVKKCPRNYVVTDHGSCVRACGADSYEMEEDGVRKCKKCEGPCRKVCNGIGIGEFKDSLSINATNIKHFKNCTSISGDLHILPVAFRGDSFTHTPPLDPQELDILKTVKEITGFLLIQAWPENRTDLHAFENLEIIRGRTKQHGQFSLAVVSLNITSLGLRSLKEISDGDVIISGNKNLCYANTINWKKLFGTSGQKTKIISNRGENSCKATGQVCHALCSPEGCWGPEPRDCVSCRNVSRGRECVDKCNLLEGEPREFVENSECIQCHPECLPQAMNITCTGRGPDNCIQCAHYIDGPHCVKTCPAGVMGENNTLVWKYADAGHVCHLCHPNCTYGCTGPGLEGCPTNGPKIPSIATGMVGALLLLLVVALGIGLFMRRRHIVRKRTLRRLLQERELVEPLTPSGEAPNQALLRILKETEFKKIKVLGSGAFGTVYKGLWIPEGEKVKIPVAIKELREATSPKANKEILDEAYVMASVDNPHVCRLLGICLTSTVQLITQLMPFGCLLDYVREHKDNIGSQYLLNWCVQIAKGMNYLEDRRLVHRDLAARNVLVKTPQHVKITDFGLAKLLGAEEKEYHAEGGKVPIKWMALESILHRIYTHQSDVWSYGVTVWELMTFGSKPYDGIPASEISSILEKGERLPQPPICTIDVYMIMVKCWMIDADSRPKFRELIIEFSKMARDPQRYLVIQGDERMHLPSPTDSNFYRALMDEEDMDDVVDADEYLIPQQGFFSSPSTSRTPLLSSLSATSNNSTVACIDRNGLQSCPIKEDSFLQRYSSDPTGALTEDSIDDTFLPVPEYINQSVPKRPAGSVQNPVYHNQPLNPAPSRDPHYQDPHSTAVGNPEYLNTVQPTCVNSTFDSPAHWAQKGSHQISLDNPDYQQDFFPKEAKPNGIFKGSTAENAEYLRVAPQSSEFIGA

For orientation: IC50 means the concentration that gives 50% inhibition. As for `COc1c(Cl)cccc1Nc1c(-c2ccnc(NCC3CC(F)(F)C3)c2)[nH]c2c1C(=O)NCC2` [compound 711], the IC50 was over 1000 nM in assay [1]; over 1000 nM in assay [2]; over 1000 nM in assay [3]; over 1000 nM in assay [4]; 100 to 1000 nM in assay [5].
For the molecule `CNc1cc(-c2[nH]c3c(c2Nc2cccc(Cl)c2OC)C(=O)NCC3)ncn1` [compound 284], the IC50 in assay [1], in assay [2], in assay [3], in assay [4] and in assay [5] was over 1000 nM each time.
Regarding `COc1c(F)cccc1Nc1c(-c2nnc3cc(C)ccn23)[nH]c2c1C(=O)NCC2` [compound 246], the IC50 in assay [1], in assay [2], in assay [3], in assay [4] and in assay [5] was over 1000 nM in each case.
Take `Nc1nccc(-c2[nH]c3c(c2Nc2ccc(F)c(F)c2)C(=O)NCC3)n1` [compound 203]: the 50% inhibitory concentration (IC50) is over 1000 nM in assay [1]; over 1000 nM in assay [2]; over 1000 nM in assay [3]; 100 to 1000 nM in assay [4]; over 1000 nM in assay [5].
For `Nc1nccc(-c2[nH]c3c(c2Nc2cc(F)cc(F)c2)C(=O)NCC3)n1` [compound 204], the IC50 in assay [1], in assay [2], in assay [3], in assay [4] and in assay [5] was 100 to 1000 nM in each case.
Consider `Cc1cc(F)ccc1Nc1c(-c2ccnc(N)n2)[nH]c2c1C(=O)NCC2` [compound 197], for which the IC50 in assay [1], in assay [2], in assay [3], in assay [4] and in assay [5] was over 1000 nM in each case.
On to `CCOc1c(F)cccc1Nc1c(-c2ccnc(N)n2)[nH]c2c1C(=O)NCC2` [Compound 699, 2-(2-aminopyrimidin-4-yl)-3-[(2-ethoxy-3-fluorophenyl)amino]-1H,5H,6H,7H-pyrrolo[3,2-c]pyridin-4-one; trifluoroacetic acid], for which the IC50 in assay [1] is over 1000 nM; in assay [2], over 1000 nM; in assay [3], over 1000 nM; in assay [4], over 1000 nM; in assay [5], 100 to 1000 nM.
As to `COc1c(Cl)cccc1Nc1c(-c2ccnc(NC3CC(F)(F)C3)n2)[nH]c2c1C(=O)NCC2` [Compound 712, 3-[(3-chloro-2-methoxyphenyl)amino]-2-[2-[(3,3-difluorocyclobutyl)amino]pyrimidin-4-yl]-1H,5H,6H,7H-pyrrolo[3,2-c] pyridin-4-one], the half-inhibitory concentration (IC50) was over 1000 nM in assay [1]; over 1000 nM in assay [2]; over 1000 nM in assay [3]; over 1000 nM in assay [4]; 100 to 1000 nM in assay [5].
For the molecule `COc1c(F)cccc1Nc1c(-c2ccnc3ccc(NC4(C)CC4)nc23)[nH]c2c1C(=O)NCC2` [Compound 695, 3-[(3-fluoro-2-methoxyphenyl)amino]-2-[6-[(1-methylcyclopropyl)amino]-1,5-naphthyridin-4-yl]-1H,5H,6H,7H-pyrrolo[3,2-c]pyridin-4-one; formic acid], the IC50 in assay [1], in assay [2], in assay [3], in assay [4] and in assay [5] was under 100 nM each time.
As to `COc1c(Cl)cccc1Nc1c(-c2ccnc(N)n2)[nH]c2c1C(=O)N[C@H](C)C2` [187b], the IC50 in assay [1] is 100 to 1000 nM; in assay [2], under 100 nM; in assay [3], under 100 nM; in assay [4], 100 to 1000 nM; in assay [5] it was under 100 nM.
Take `C#Cc1cccc(Nc2c(-c3ccnc(N)n3)[nH]c3c2C(=O)NCC3)c1OC` [Compound 703, 2-(2-aminopyrimidin-4-yl)-3-[(3-ethynyl-2-methoxyphenyl)amino]-1H,5H,6H,7H-pyrrolo[3,2-c]pyridin-4-one]: the IC50 was over 1000 nM in assay [1]; over 1000 nM in assay [2]; over 1000 nM in assay [3]; over 1000 nM in assay [4]; 100 to 1000 nM in assay [5].
Consider `Nc1nccc(-c2[nH]c3c(c2Nc2cccc4c2OCO4)C(=O)NCC3)n1` [compound 306], for which the IC50 in assay [1] is over 1000 nM; in assay [2], over 1000 nM; in assay [3], over 1000 nM; in assay [4], 100 to 1000 nM; in assay [5], 100 to 1000 nM.
Consider `COc1c(Cl)cccc1Nc1c(-c2ccnc3[nH]c(=O)oc23)[nH]c2c1C(=O)NCC2` [compound 293], for which the IC50 in assay [1], in assay [2], in assay [3], in assay [4] and in assay [5] was over 1000 nM throughout.
For `CSc1c(Cl)cccc1Nc1c(-c2ccnc(N)n2)[nH]c2c1C(=O)NCC2` [Compound 715, 2-(2-aminopyrimidin-4-yl)-3-[[3-chloro-2-(methylsulfanyl)phenyl]amino]-1H,5H,6H,7H-pyrrolo[3,2-c]pyridin-4-one], the IC50 in assay [1] was over 1000 nM; in assay [2], 100 to 1000 nM; in assay [3], 100 to 1000 nM; in assay [4], 100 to 1000 nM; in assay [5] it was under 100 nM.
`COc1c(Cl)cccc1Nc1c(-c2ccnc(N)n2)[nH]c2c1C(=O)NC[C@@H]2C` [186a]: the IC50 was 100 to 1000 nM in assay [1]; under 100 nM in assay [2]; under 100 nM in assay [3]; under 100 nM in assay [4]; under 100 nM in assay [5].
Turning to `COc1cccc(Nc2c(-c3ccnc(N)n3)[nH]c3c2C(=O)NCC3)c1C` [Compound 705, 2-(2-aminopyrimidin-4-yl)-3-[(3-methoxy-2-methylphenyl)amino]-1H,5H,6H,7H-pyrrolo[3,2-c]pyridin-4-one], the concentration for half-maximal inhibition (IC50) in assay [1], in assay [2], in assay [3], in assay [4] and in assay [5] was over 1000 nM in each case.
Take `COc1c(Nc2c(-c3ccnc(N)n3)[nH]c3c2C(=O)NCC3)ccc(F)c1F` [compound 303]: the IC50 is over 1000 nM in assay [1]; over 1000 nM in assay [2]; 100 to 1000 nM in assay [3]; over 1000 nM in assay [4]; 100 to 1000 nM in assay [5].
On to `COc1c(Cl)cccc1Nc1c(-c2nc(N)ncc2C#N)[nH]c2c1C(=O)NCC2` [Compound 693, 2-amino-4-[3-[(3-chloro-2-methoxyphenyl)amino]-4-oxo-1H,5H,6H,7H-pyrrolo[3,2-c]pyridin-2-yl]pyrimidine-5-carbonitrile], for which the IC50 in assay [1], in assay [2], in assay [3], in assay [4] and in assay [5] was over 1000 nM in each case.
Turning to `COc1c(F)cccc1Nc1c(-c2ccnc(N)c2)[nH]c2c1C(=O)NCC2` [compound 242], the IC50 is over 1000 nM in assay [1]; over 1000 nM in assay [2]; over 1000 nM in assay [3]; over 1000 nM in assay [4]; 100 to 1000 nM in assay [5].
With `Cc1c(C#N)cccc1Nc1c(-c2ccnc(N)n2)[nH]c2c1C(=O)NCC2` [compound 201], the IC50 in assay [1], in assay [2], in assay [3], in assay [4] and in assay [5] was over 1000 nM in each case.
